Residues, ends and D or L forms follow the SMILES beside them.
Tests used:
[1] = tested on: mice treated with Mtox; assay: Example 31: Mtox model of Parkinson's Disease; type: in vivo, mouse; conditions: Mtox 10 mg/kg, three doses
Experimental: Three doses of Mtox (10 mg/kg) will be given to mice (n=12) 2 hours apart. Peptide conjugates, aromatic-cationic peptides, or SPN10(s) with or without aromatic-cationic peptides will be administered 30 minutes before each Mtox injection, and at 1 and 12 hours after the last Mtox injection. Animals will be sacrificed one week later and striatal brain regions will be immunostained for tyrosine hydroxylase activity. Levels of dopamine, DOPAC and HVA levels will be quantified by high pressure liquid chromatography.

[2] = tested on: acute myocardial infarction; assay: Infarct size at revascularization, given with cyclosporine; type: in vivo, human; conditions: along with cyclosporine at the time of reperfusion
Experimental: Study group. Men and women, 18 years of age or older, who present within 6 hours after the onset of chest pain, who have ST-segment elevation of more than 0.1 mV in two contiguous leads, and for whom the clinical decision is made to treat with percutaneous coronary intervention (PCI) will be eligible for enrollment. Patients are eligible for the study whether they are undergoing primary PCI or rescue PCI. Occlusion of the affected coronary artery (Thrombolysis in Myocardial Infarction (TIMI) flow grade 0) at the time of admission is also a criterion for inclusion. Angiography and Revascularization. […] Either separately or simultaneously, cyclosporine (final concentration, […] will be injected through the catheter. Normal saline (0.9% NaCl) will be used as a control. The patients in the control group receive an equivalent volume of normal saline. Infarct Size. The primary end point will be the size of the infarct as assessed by measurements of cardiac biomarkers. Blood samples are obtained at admission and repeatedly over the next 3 days. The area under the curve (AUC) (expressed in arbitrary units) for creatine kinase and troponin I release (Beckman kit) will be measured in each patient by computerized planimetry. […] The images are analyzed in short axis slices covering the entire left ventricle. […]

`N=C(N)NCCC[C@H](NC(=O)[C@@H](N)Cc1c[nH]c2ccccc12)C(=O)N[C@@H](Cc1c[nH]c2ccccc12)C(=O)N[C@@H](CCCCN)C(N)=O` [SPN10, H-L-Trp-L-Arg-L-Trp-L-Lys-NH2] (H-WRWK-NH2) was tested, and the “loss of dopaminergic neurons” value [1] was “dose-dependently prevent the loss of dopaminergic neurons”, the “striatal dopamine, DOPAC, and HVA levels” value [1] was “dose-dependently increase striatal dopamine, DOPAC, and HVA levels” and the “infarct size versus placebo” value [2] was “smaller infarct”.

From patent publication US20240108740A1, “THERAPEUTIC COMPOSITIONS INCLUDING SPN10 AND USES THEREOF” (Stealth BioTherapeutics Inc., priority 2022, published 2024)
